Laboratory results as given in patent US20220331371A1, “DEVELOPMENT OF EMBRYONIC-LIKE TISSUE FROM STEM CELLS” (The Regents of the University of Michigan, priority 2019, published 2022).

Key:
[1] = system: human ES cells co-cultured with Transwell-AMLCs; assay: Transwell co-culture assay of AMLCs and human ES cells; type: cell-based; conditions: 5 μM in Transwell co-culture, 48 h
Experimental: Immunocytochemistry. hPSCs were fixed in 4% paraformaldehyde (PFA; buffered in 1× PBS) for 12 h, and permeabilized in 0.1% SDS solution (sodium dodecyl sulphate, dissolved in PBS) for another 3 h. Samples were then blocked in 4% donkey serum (Sigma-Aldrich) at 4° C. for 24 h, followed by incubation with primary antibody solutions at 4° C. for another 24 h. Samples were then labelled with donkey-raised secondary antibodies (1:500 dilution) at 4° C. for 24 h, 4,6-diamidino-2-phenylindole (DAPI; Thermo Fisher Scientific) was used for counterstaining cell nuclei. Alexa Fluor dye-conjugated WGA (Thermo Fisher Scientific) and phalloidin (Invitrogen) were used for visualization of cell membrane and actin microfilaments, respectively. Both primary and secondary antibodies were prepared in 4% donkey serum supplemented with 0.1% NaN3. Seventy microlitre antibody solutions were added to each medium reservoir for immunostaining. The asymmetric embryonic-like sac structure was assessed by immunocytochemistry to confirm molecular asymmetry at t=36 h (for P-ELS: co-staining for TFAP2A and T; for A-ELS: co-staining for TFAP2A and NANOG). In situ hybridization. […] For morphogenetic quantification, bright-field or phase-contrast images were acquired using a Zeiss Observer Z1 microscope (Carl Zeiss MicroImaging) equipped with a monochrome CCD camera (AxioCam, Carl Zeiss MicroImaging). […]

[2] = system: PrePS-EPI-like cells in P-ELS; assay: Posterior primitive streak-like cell development in P-ELS with antagonists in the induction channel; type: cell-based, human
Description: Cell lines. hPSC lines used in this study include H1 human ES cell (WA01, WiCell; NIH registration number: 0043), H9 human ES cell (WA09, WiCell; NIH registration number: 0062) and 1196a (a human iPSC line from the University of Michigan Pluripotent Stem Cell Core31). All hPSC lines have been authenticated by original sources as well as in-house by immunostaining for pluripotency markers and successful differentiation to the three germ layers. All hPSC lines are maintained in a feeder-free system for at least ten passages and authenticated as karyotypically normal. Karyotype analysis was performed by Cell Line Genetics. All hPSC lines are tested negative for mycoplasma contamination (LookOut Mycoplasma PCR Detection Kit, Sigma-Aldrich). Cell culture. hPSCs were maintained in a standard feeder-free culture system using mTeSR medium (mTeSR; STEMCELL Technologies) or TeSR-E8 medium (Essential 8 or E8; STEMCELL Technologies) and lactate dehydrogenase-elevating virus (LDEV)-free, human ES cell-qualified reduced growth factor basement membrane matrix Geltrex (Thermo Fisher Scientific; derived from Engelbreth-Holm-Swarm tumors similarly to Matrigel). Cell cultures were visually examined during each passage to ensure absence of spontaneously differentiated, mesenchymal-like cells in culture. All hPSCs were used before reaching P70. Device fabrication. The microfluidic device consists of a polydimethylsiloxane (PDMS) structure layer bonded to a coverslip. The PDMS structure layer is made by mixing PDMS curing agent and base polymer (Sylgard 184; Dow Coming) at a ratio of 1:10 before casting PDMS prepolymer onto a microfabricated silicon mold and baking at 110° C. for 40 min. Medium reservoirs (8 mm in diameter) and gel-loading ports (1.2 mm in diameter) were then punched into the PDMS structure layer using Harris Uni-Core punch tools (Ted Pella). After cleaning with ethanol and air plasma activation, the PDMS structure layer was bonded to a coverslip before baking at 80° C. overnight. Before usage, the microfluidic device was sterilized under UV light for 30 min. […]

SMILES: Cc1ccc2nc(NC(=O)CSc3nc4c(c(=O)n3-c3ccccc3)SCC4)sc2c1 [IWP2]
- Differentiation of posterior primitive streak-like cells [1]: inhibited
- Inhibition of induction of MeLC in posteriorized embryonic-like sac ([2]; IWR1 10 μM or IWP2 5 μM): inhibited
- Inhibition of PrePS-EPI-like cell development ([2]; supplemented in the induction channel (IWP2 5 μM, IWR1 10 μM, noggin 50 ng ml^−1), BMP4 in cell-loading channel): completely inhibited
